Test results from patent US20050282757A1, “Peptide boronic acid compounds useful in anticoagulation” (Trigen Limited, priority 2002, published 2005).
“And” between values parts separate entries of the source, which are not always exact repeats. Equal values may be shown once. “Also recorded” adds a separate entry of the source. Marks after values point to notes of the source that are not given here.

What was measured:
thrombin time and APTT = assay: Oral administration in dog, PK/PD (Example 45)
Method: Three female and three male dogs were used for each leg of the study. The weight range of the dogs was 8-18 kg.
The PD was measured as thrombin time and APTT using an automated coagulometer. Plasma concentrations were measured using an LCMS/MS method.
The dose was tailored on an individual basis for each dog.

thrombin time [1] = assay: Intraduodenal absorption in rat, thrombin time (Examples 42 and 44); type: in vivo, male Wistar rats; design: Mean increase in thrombin time / Thrombin time increase: unit not given here; details: for Group mean thrombin time (s ± sd): 20 mg/kg intraduodenal
Method: • Place 10 mg of the relevant compound in an Eppendorf cup • Add 0.5 mL ethanol and shake for 10 minutes • Sonicate for 10 minutes • Add 1.5 mL of buffer • Shake for additional 15 minutes • Resulting target concentration: 5 mg/mL B. Intraduodenal Studies
The intraduodenal studies were performed using male Wistar rats, approximately 8 weeks of age and weighing between 250 and 300 g.
Food was withheld overnight prior to dosing and returned approximately 2 hours post-dose. Water was available ad libitum.
Animals were anaesthetised using gaseous halothane. A small incision was made in the abdomen and the duodenum located. Each animal received a single administration of control or test article by injection directly into the duodenum, using a constant dose volume of 4 mL/kg. Following administration the incision was closed using surgical staples.
Individual dose volumes were based on individual body weights, obtained on the day of dosing. Treatments employed for the study were as follows:
(§1) Approximately 0.6 mL of blood was collected via a tail vein into 3.8% tri sodium citrate tubes approximately 48 hours prior to dosing and again at 0.5, 1, 2, 4 and 8 hours post-dose.
(§2) Plasma was prepared by centrifugation at […] for 10 minutes at 4° C. Plasma was stored frozen (nominally −20° C.) prior to analysis in an automated coagulometer.
The thrombin times determined in example 42 were analysed to determine the standard deviation for increase in thrombin time, expressed as a percentage of the mean value (this is sometimes called the ‘coefficient of variation’).

thrombin time [2] = assay: Oral absorption in rat, thrombin time (Example 43); type: in vivo, male Wistar rats; details: 20 mg/kg oral gavage
Method: The procedure of Example 42 was followed.
The per-oral studies were performed using male Wistar rats, approximately 8 weeks of age and weighing between 250 and 300 g.
Food was withheld overnight prior to dosing and returned approximately 2 hours post-dose. Water was available adlibitum.
Each animal received a single administration of control or test article by oral gavage, using a constant dose volume of 4 mL/kg.
Individual dose volumes were based on individual body weights, obtained on the day of dosing.
as §1, §2

Thrombin Time (TT) = assay: Oral administration of TGN 167 tablets to healthy male subjects (Example 47); type: in vivo, human
Method: TGN 167 tablets described above were administered via the oral route to 10 healthy male subjects as single doses (randomised double blind placebo controlled study). The group consisted of 10 healthy male volunteers, 9 of whom received active compound and one of whom received placebo. An amendment was introduced for the last panel, allowing 15 subjects (instead of 9) to receive a 600 mg dose. The interval between each dose of TGN 167 was one week minimum. The allocation of the placebo was such that each volunteer would only receive placebo once during the course of the study.
Orally administered doses were: 75 mg (one tablet), 150 mg (two tablets), 300 mg (four tablets) and 600 mg (eight tablets).

[3] = Stability in enteric-coated hard gelatin capsules, HPLC-PDA (Example 41); type: physicochemical; details: for Amount of Tri50c: 10 mg content in 10 ml
Method: TRI 50c-standard (free acid) was stored in a desiccator over phosphorus pentoxide for 2 days for drying. Afterwards, the reference standard was weighed in a volumetric flask and dissolved in a mixture of acetonitrile and water (25/75 v/v %). Aliquots of the resulting solution (ST 1A) were diluted successively with water as shown in the dilution scheme of table 4.
The stored capsules of every batch at corresponding climatic condition were removed and 10 mg of the content was weighed in a 10 ml volumetric flask and dissolved in 10 ml of a mixture of acetonitrile/water (25/75 v/v %). These solutions were injected for impurity profile analysis and for quantification respectively.
The quantitative evaluation and the impurity profile analysis were performed using an HPLC-PDA method. The processing wavelength was set as 258 nm.

[4] = Comparative storage stability of sodium and calcium salts (Example 49); type: physicochemical; details: for Tri50c (w/w %, LOD corr.): corrected for loss on drying
Text: In both studies the active pharmaceutical ingredient was stored in grip sealed double bags within a PE/PP screw cap closed cylinder.

[5] = individual rats dosed intraduodenally, listed as Ca Salt, hemicalcium salt, in s
[6] = capsules (no blister) 40° C./75% r.h.
[7] = capsules in blister 25° C./60% r.h.
[8] = capsules in blister 40° C./75% r.h.

COCCC[C@H](NC(=O)[C@@H]1CCCN1C(=O)[C@@H](Cc1ccccc1)NC(=O)OCc1ccccc1)B([O-])O.COCCC[C@H](NC(=O)[C@@H]1CCCN1C(=O)[C@@H](Cc1ccccc1)NC(=O)OCc1ccccc1)B([O-])O.[Ca+2] [TRI 50c calcium salt, Cbz-(R)-Phe-(S)-Pro-(R)-Mpg-B(OH)2 hemicalcium salt]
mean thrombin clotting time 8 hours post dose (thrombin time and APTT): 20.2 s | time of peak thrombin time post dose (thrombin time and APTT): three hours post dose | mean APTT at peak (thrombin time and APTT; 3 hours following administration, from 14.5 seconds): 18 s | mean thrombin clotting time at peak (C max) (thrombin time and APTT; base line 15 seconds (calcium salt), 15.4 seconds (TRI 50c)): 80.5 s | tolerance (thrombin time and APTT; enterically coated gelatine capsules): tolerated well with no adverse events | estimated bioavailability in some animals (thrombin time and APTT; estimated from thrombin clotting times): ≤ 50% | mean estimated bioavailability (thrombin time and APTT; estimated from thrombin clotting times, including two lower responders): 25% | peak thrombin clotting times achieved by all dogs (thrombin time and APTT; individual dogs): up to 148 seconds | Group mean thrombin time (s ± sd) (thrombin time [1]; 0.5 hour): 42.0 ± 6.74 s | Group mean thrombin time (s ± sd) (thrombin time [1]; 1 hour): 34.0 ± 1.89 s | Group mean thrombin time (s ± sd) (thrombin time [1]; 2 hour): 22.6 ± 5.10 s | Group mean thrombin time (s ± sd) (thrombin time [1]; 4 hour): 24.4 ± 2.41 s | Group mean thrombin time (s ± sd) (thrombin time [1]; 8 hour): 22.4 ± 1.73 s | Group mean thrombin time (s ± sd) (thrombin time [1]; −48 hour (pre-dose)): 21.6 ± 1.77 s | Mean increase in thrombin time (thrombin time [1]; 0.5 h minus 0 h, intraduodenal): 20.50 | Thrombin time, 0 h (thrombin time [1]; [5]): 21.97 and 18.75 and 23.57 and 21.57 | Thrombin time, 0.5 h (thrombin time [1]; [5]): 35.32 and 45.98 and 37.27 and 49.30 | Thrombin time increase (thrombin time [1]; individual rats, 0.5 h minus 0 h, listed as Ca Salt, hemicalcium salt): 13.35 and 27.23 and 13.70 and 27.73 | Group mean thrombin times (s ± sd) (thrombin time [2]; 0.5 hour): 25.9 ± 3.05 s | Group mean thrombin times (s ± sd) (thrombin time [2]; 1 hour): 25.7 ± 1.94 s | Group mean thrombin times (s ± sd) (thrombin time [2]; 2 hour): 24.3 ± 0.98 s | Group mean thrombin times (s ± sd) (thrombin time [2]; 4 hour): 25.0 ± 1.31 s | Group mean thrombin times (s ± sd) (thrombin time [2]; 8 hour): 22.9 ± 3.46 s | Group mean thrombin times (s ± sd) (thrombin time [2]; −48 hour (pre-dose)): 23.4 ± 1.25 s | safety assessments (Thrombin Time (TT); oral 75, 150, 300, 600 mg): No clinically significant findings | time after administration at which all TT had returned to baseline (Thrombin Time (TT); oral tablets): 10 h | effect on thrombin time (TT) (Thrombin Time (TT); oral tablets 75-600 mg): dose-related increase in the Thrombin Time (TT) | adverse clinical events (Thrombin Time (TT); study period of 24 hours, any dose): no adverse clinical events of either a general or cardiovascular nature | Benzaldeh. % Area in impurity profile [3, 6]: 3.64 % Area | Imp.I % Area in impurity profile [3, 6]: 0.84 % Area | Amount of Tri50c [3, 6]: 780.097 µg/mL | Benzaldeh. % Area in impurity profile [3, 7]: 1.29 % Area | Amount of Tri50c [3, 7]: 930.903 µg/mL | Benzaldeh. % Area in impurity profile [3, 8]: 2.37 % Area | Amount of Tri50c [3, 8]: 786.223 µg/mL | Purity (HPLC % Area) T1 ([3]; capsules in blister, 1.5 month 25° C./60% r.h., hemicalcium salt): 98.0 HPLC % Area | Purity (HPLC % Area) T1 ([3]; capsules in blister, 1.5 month 25° C./60% r.h., listed as TRI50C Ca Salt, hemicalcium salt): 98.02 HPLC % Area | Purity (HPLC % Area) T1 ([3]; capsules in blister, 1.5 month 40° C./75% r.h., hemicalcium salt): 97.2 HPLC % Area | Purity (HPLC % Area) T1 ([3]; capsules in blister, 1.5 month 40° C./75% r.h., listed as TRI50C Ca Salt, hemicalcium salt): 97.19 HPLC % Area | Purity (HPLC % Area) T1 ([3]; capsules without blister, 1.5 month 40° C./75% r.h., hemicalcium salt): 95.0 HPLC % Area | Purity (HPLC % Area) T1 ([3]; capsules without blister, 1.5 month 40° C./75% r.h., listed as TRI50C Ca Salt, hemicalcium salt): 94.96 HPLC % Area | Purity (HPLC % Area) T0 ([3]; purity of the batch before storage, hemicalcium salt): 99.2^2) HPLC % Area and 99.2^2 HPLC % Area | Color ([4]; T = 0): white | TRI 50c (% peak area) ([4]; T = 0): 99.4 % peak area | Tri50c (w/w %, LOD corr.) ([4]; T = 0): 99.7 w/w % | Appearance ([4]; T = 0, hemicalcium salt): powdery,; also recorded: odourless | Appearance ([4]; T = 1, 25° C./60% r.h.): powdery | Color ([4]; T = 1, 25° C./60% r.h.): white | TRI 50c (% peak area) ([4]; T = 1, 25° C./60% r.h.): 98.3 % peak area | Tri50c (w/w %, LOD corr.) ([4]; T = 1, 25° C./60% r.h.): 101.5 w/w % | Appearance ([4]; T = 1, 40° C./75% r.h.): powdery | Color ([4]; T = 1, 40° C./75% r.h.): white | TRI 50c (% peak area) ([4]; T = 1, 40° C./75% r.h.): 95.2 % peak area | Tri50c (w/w %, LOD corr.) ([4]; T = 1, 40° C./75% r.h.): 100.6 w/w % | Appearance ([4]; T = 1, −20° C.): powdery | Color ([4]; T = 1, −20° C.): white | TRI 50c (% peak area) ([4]; T = 1, −20° C.): 99.1 % peak area | Tri50c (w/w %, LOD corr.) ([4]; T = 1, −20° C.): 102.7 w/w % | Appearance ([4]; T = 3, 25° C./60% r.h.): powdery | Color ([4]; T = 3, 25° C./60% r.h.): white | TRI 50c (% peak area) ([4]; T = 3, 25° C./60% r.h.): 97.5 % peak area | Tri50c (w/w %, LOD corr.) ([4]; T = 3, 25° C./60% r.h.): 104.3 w/w % | Appearance ([4]; T = 3, 40° C./75% r.h.): powdery | Color ([4]; T = 3, 40° C./75% r.h.): white | TRI 50c (% peak area) ([4]; T = 3, 40° C./75% r.h.): 71.2 % peak area | Tri50c (w/w %, LOD corr.) ([4]; T = 3, 40° C./75% r.h.): 82.0 w/w % | Appearance ([4]; T = 3, −20° C.): powdery | Color ([4]; T = 3, −20° C.): white | TRI 50c (% peak area) ([4]; T = 3, −20° C.): 99.2 % peak area | Tri50c (w/w %, LOD corr.) ([4]; T = 3, −20° C.): 103.0 w/w % | TRI 50c (% peak area) ([4]; T = 12, 25° C./60% r.h.): 96.9 % peak area | Tri50c (w/w %, LOD corr.) ([4]; T = 12, 25° C./60% r.h.): 94.8 w/w %
